Test results taken from patent US5840911A, “Imidazole derivatives, their preparation and their use as S-adenosylmethionine decarboxylase (=SAMDC) inhibitors” (Novartis AG, priority 1995, dated 1998).
pIC50: −log10 of the molar value. Counter-ions that a name gives are not always drawn. Like-named read-outs stand apart in the source and are kept apart here.

How the values were obtained:
[1] = Maximum tolerable dose (MTD); parameters: species or system mice; settings: mouse, in vivo, read-out: maximum tolerated dose
[2] = target: T1, S-adenosylmethionine decarboxylase (SAMDC) (Rattus norvegicus, UniProt P17708); test: Inhibition of S-adenosylmethionine decarboxylase (SAMDC); format: biochemical; settings: read-out: IC50, inhibition of the enzyme SAMDC
T1 sequence (P17708 68-333 limits assumed): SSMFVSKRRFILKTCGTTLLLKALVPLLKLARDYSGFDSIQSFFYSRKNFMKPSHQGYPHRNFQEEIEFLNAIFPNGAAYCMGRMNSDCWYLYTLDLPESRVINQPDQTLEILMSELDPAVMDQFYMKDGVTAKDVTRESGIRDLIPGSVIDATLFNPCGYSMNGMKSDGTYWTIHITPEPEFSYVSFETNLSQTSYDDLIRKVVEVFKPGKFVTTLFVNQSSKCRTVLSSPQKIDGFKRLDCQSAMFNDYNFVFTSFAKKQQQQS
T1 sequence (P17708 1-67 limits assumed): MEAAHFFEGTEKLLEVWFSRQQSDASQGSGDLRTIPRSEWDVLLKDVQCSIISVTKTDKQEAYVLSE

[3] = system: human T24 bladder cell carcinomas; test: Inhibition of the growth of T24 bladder carcinoma cells in vivo (nude mouse); parameters: species or system human; BALB/c nude mice; settings: for T/C on i.p. administration / T/C on p.o. administration: average for 6 animals
Description: W. Porter (see Cancer Res. 54, 3210-3217 (1994)). Briefly, the procedure is as follows: To determine the maximum tolerable dose (MTD), the compounds according to the invention (for example dissolved in distilled water/0.9% NaCl) are injected i.p. into three mice per group. The dose is increased until the first animals die within a period of 10 days. To determine the anti-tumor activity, for example, small pieces of human T-24 bladder carcinoma cells (ATCC HTB 4) are cultured and transplanted as xenogenic transplants ("xenografts") into female BALB/c nude mice (Bomholtgarden, Copenhagen, Denmark). The anti-tumor treatment using compounds of formula I is started after at least three successive transplants. Tumor fragments weighing approximately 25 mg are transplanted into the left flank of the mouse (n=6 per group). Treatment is started as soon as the tumors have an average tumor volume of from 150 to 200 mm^3. The growth of the tumors is determined twice weekly by measuring mutually perpendicular tumor diameters. The tumor volumes are determined in the manner described by U. Regenass, H. Mett, J. Stanek, M. Muller, D. Kramer and C. W. Porter (see Cancer Res. 54 3210-3217 (1994)) and are given as relative tumor size (i.e. increase in tumor volume relative to the tumor volume at the beginning of treatment) in T/C % (percent treated/control). The test compounds are dissolved in distilled water and diluted with 3 volumes of 0.9% (w/v) NaCl in water.
Using the method mentioned hereinbefore (see also Regenass et al., Cancer Res. 54, 3210-3217 ([…])), the compound of Example 2 of the present Application is administered in accordance with the following treatment scheme to BALB/c nude mice with transplanted human T24 bladder cell carcinomas: The compound is administered p.o. (50, 25 and 12.5 mg/kg) or i.p. (12.5, 6.25 and 3.13 mg/kg). The compound is dissolved in distilled water and diluted with 3 volumes of 0.9% NaCl (w/v) in water.

[4] = system: human T24 bladder carcinoma cells; test: Inhibition of the growth of human T24 bladder carcinoma cells; format: cell-based; settings: 120 h, 5 days incubation, concentration at half the maximum inhibition
Description: The carcinoma cells (1000-1500; ATCC HB 4) are transferred to 96-well microtitre plates and are incubated overnight under the said conditions. The test compound is added in serial dilutions on day 1. The plates are incubated under the said conditions for 5 days. During that period, control cultures undergo at least 4 cell divisions. After the incubation, the cells are fixed with 3.3% (weight/volume=w/v) aqueous glutaraldehyde solution, washed with water and stained with 0.05% (w/v) aqueous methylene blue solution. After washing, the dye is eluted with 3% (w/v) aqueous hydrochloric acid. The optical density (OD) per well, which is directly proportional to the number of cells, is then measured by means of a photometer (Titertek multiskan) at 665 nm. The IC50 values are calculated by means of a computer system using the formula [formula] The IC50 value is defined as the concentration of active ingredient at which the number of cells per well at the end of the incubation period is only 50% of the number of cells in the control cultures. The inhibition of the growth of human T24 bladder carcinoma cells is measured using the method mentioned hereinbefore. The following IC50 values (concentration of the test compound at half the maximum inhibition) are determined using the following Examples: […]

Row | Compound | pIC50 [2] | pIC50 [4] | further results
1 | N=C(N)c1cccc2c1CCC2=Nn1cc(-c2ccccc2)nc1N [Example 2, 1-[4-(Amidino)-2,3-dihydro-1H-inden-1: -ylideneamino]-2-amino-4-phenyl-imidazole dihydrochloride] | 8.70 | 5.94 | MTD at 240 h ([1]; ip): 125 mg/kg; MTD at 240 h ([1]; po): > 500 mg/kg; T/C on i.p. administration ([3]; 3.13 mg/kg): 34%; T/C on i.p. administration ([3]; 6.25 mg/kg): 22%; T/C on i.p. administration ([3]; 12.5 mg/kg): 16%; growth of T24 bladder carcinoma cells in vivo (in words) ([3]; oral and intraperitoneal administration): inhibits the growth of T24 bladder carcinoma cells; dose-dependence of tumor growth inhibition ([3]; p.o. and i.p.): dose-dependence of the action is observed; T/C on p.o. administration ([3]; 12.5 mg/kg): 68%; T/C on p.o. administration ([3]; 25 mg/kg): 47%; T/C on p.o. administration ([3]; 50 mg/kg): 31%
2 | COc1ccccc1-c1cn(N=C2CCc3c(C(=N)N)cccc32)c(N)n1 [Example 6, 1-[4-(Armidino)-2,3-dihydro-1H-inden-1-ylideneamino]-2-amino-4-(2-methoxyphenyl)-imidazole dihydrochloride] | 8.08 | 5.92 | –
3 | COc1ccc(OC)c(-c2cn(N=C3CCc4c(C(=N)N)cccc43)c(N)n2)c1 [Example 8, 1-[4-(Amidino)-213-dihydro-1H-inden-1-ylideneamino]-2-amino-4-(2,5-di-methoxyphenyl)-imidazole dihydrochloride] | 8.05 | 5.80 | –
4 | COc1cccc(-c2cn(N=C3CCc4c(C(=N)N)cccc43)c(N)n2)c1 [Example 10, 1-[4-(Amidino)-2,3-dihydro-1 1H-inden-1-ylideneamino]-2-amino-4-(3-methoxyphenyl)-imidazole dihydrochloride] | 8.38 | 5.59 | –
5 | CCc1cn(N=C2CCc3c(C(=N)N)cccc32)c(N)n1 [Example 18, 1-[4-(Amidino)-2,3-dihydro-1H-inden-1-ylideneamino]-2-amino-4-ethyl-imidazole dihydrochloride] | 8.21 | 5.82 | –
6 | N=C(N)c1cccc2c1CCC2=NN1CCN=C1N [Example 20, 1-[4-(Amidino)-2,3-dihydro-1H-inden-1-ylideneamino]-2-amino-4,5-di-hydro-imidazole dihydrochloride] | 8.47 | 6.55 | –
7 | N=C(N)c1cccc2c1CCC2=Nn1ccnc1N [Example 26, 1-[4-(Amidino)-2,3-dihydro-1H-inden-1-ylideneamino]-2-amino-imidazole dihydrochloride] | – | 5.67 | –

More lines, main results first:

Row | pIC50 [2] | pIC50 [4] | Compound | further results
8 | 8.44 | 5.70 | COc1ccc(-c2cn(N=C3CCc4c(C(=N)N)cccc43)c(N)n2)cc1 [Example 4, 1-[4-(Amidino)-2,3-dihydro-1H-inden-1-ylideneamino]-2-amino-4-(4-methoxvphenyl)-imidazole dihydrochloride] | –
9 | 8.17 | 5.81 | N=C(N)c1cccc2c1CCC2=Nn1cc(-c2ccc(Cl)cc2)nc1N [Example 12, 1-[4-(Amidino)-2,3-dihydro-1H-inden-1-ylideneamino]-2-amino-4-(4-chlorophenyl)-imidazole dihydrochloride] | –
10 | 8.47 | 5.95 | Cc1ccc(-c2cn(N=C3CCc4c(C(=N)N)cccc43)c(N)n2)cc1 [Example 14, 1-[4-(Amidino)-2,3-dihydro-1H-inden-1-ylideneamino]-2-amino-4-(4-tolyl)-imidazole dihydrochloride] | –
11 | 8.40 | 5.57 | N=C(N)c1cccc2c1CCC2=Nn1cc(-c2ccc(F)cc2)nc1N [Example 16, 1-[4-(Amidino)-2,3-dihydro-1H-inden-1-ylideneamino]-2-amino-4-(4-fluoro-phenyl)-imidazole dihydrochloride] | –
12 | 7.96 | 6.36 | N=C(N)c1cccc2c1CCC2=Nn1cc(-c2ccc(-c3ccccc3)cc2)nc1N [Example 22, 1-[4-(Amidino)-2,3-dihydro-1H-inden-1-ylideneamino]-2-amino-4-(4-bi-phenylyl)-imidazole dihydrochloride] | –
13 | 8.12 | 5.61 | N=C(N)c1cccc2c1CCC2=Nn1cc(-c2ccc3ccccc3c2)nc1N [Example 24, 1-[4-(Amidino)-2,3-dihydro-1H-inden-1-ylideneamino]-2-amino-4-(2-naphthyl)-imidazole dihydrochloride] | –
14 | 8.27 | 6.64 | CC(C)(C)c1ccc(-c2cn(N=C3CCc4c(C(=N)N)cccc43)c(N)n2)cc1 [Example 28, 1-[4-(Amidino)-2,3-dihydro-1H-inden-1-ylideneaminol-2-amino-4-(4-tert-butylphenyl)-imidazoledihydrochloride] | –
